# Data reported in patent US20180110754A1, “CENICRIVIROC FOR THE TREATMENT OF FIBROSIS” (Tobira Therapeutics, Inc., priority 2015, published 2018).
# Assay: Study 202: fasting metabolic laboratory parameters
# Type: in vivo
# Details: for Fasting HDL, mean change from baseline / Fasting LDL, mean change from baseline / Fasting total cholesterol, mean change from baseline / Fasting total cholesterol/HDL ratio, mean change from baseline / Fasting triglycerides, mean change from baseline / HOMA-IR, mean change from baseline / HbA1c, mean change from baseline: EFV
# Excerpt: All abnormalities in total cholesterol, LDL cholesterol, triglycerides, or glucose were Grade 1 or Grade 2.
# Mean baseline values and changes from baseline in HbA1c, HOMA-IR, fasting LDL, fasting HDL, fasting total cholesterol, fasting total cholesterol/HDL ratio, and fasting triglycerides are shown in Table 36.
# [1] = All CVC (N = 115), EFV (N = 28), through Week 48
smiles,measurement,setting,value
"O=C1Nc2ccc(Cl)cc2[C@@](C#CC2CC2)(C(F)(F)F)O1 [EFV, efavirenz, reference compound]","Any graded (Grade 1-4) fasting laboratory abnormality, n subjects",[1],9
same,"Fasting LDL cholesterol abnormality, any grade, n subjects",[1],6
same,"Fasting LDL cholesterol, worst Grade 1, n subjects",[1],3
same,"Fasting LDL cholesterol, worst Grade 2, n subjects",[1],3
same,"Fasting LDL cholesterol, worst Grade 3, n subjects",[1],0
same,"Fasting LDL cholesterol, worst Grade 4, n subjects",[1],0
same,"Fasting glucose (serum, high) abnormality, any grade, n subjects",[1],2
same,"Fasting glucose (serum, high), worst Grade 1, n subjects",[1],2
same,"Fasting glucose (serum, high), worst Grade 2, n subjects",[1],0
same,"Fasting glucose (serum, high), worst Grade 3, n subjects",[1],0
same,"Fasting glucose (serum, high), worst Grade 4, n subjects",[1],0
same,"Fasting laboratory abnormality, worst Grade 1, n subjects",[1],6
same,"Fasting laboratory abnormality, worst Grade 2, n subjects",[1],3
same,"Fasting laboratory abnormality, worst Grade 3, n subjects",[1],0
same,"Fasting laboratory abnormality, worst Grade 4, n subjects",[1],0
same,"Fasting total cholesterol abnormality, any grade, n subjects",[1],9
same,"Fasting total cholesterol, worst Grade 1, n subjects",[1],6
same,"Fasting total cholesterol, worst Grade 2, n subjects",[1],3
same,"Fasting total cholesterol, worst Grade 3, n subjects",[1],0
same,"Fasting total cholesterol, worst Grade 4, n subjects",[1],0
same,"Fasting triglycerides abnormality, any grade, n subjects",[1],0
same,"Fasting triglycerides, worst Grade 1, n subjects",[1],0
same,"Fasting triglycerides, worst Grade 2, n subjects",[1],0
same,"Fasting triglycerides, worst Grade 3, n subjects",[1],0
same,"Fasting triglycerides, worst Grade 4, n subjects",[1],0
same,"Fasting HDL, mean change from baseline","Week 4, All CVC",5.90 mg/dL
same,"Fasting LDL, mean change from baseline","Week 4, All CVC",8.62 mg/dL
same,"Fasting total cholesterol, mean change from baseline","Week 4, All CVC",19 mg/dL
same,"Fasting total cholesterol/HDL ratio, mean change from baseline","Week 4, All CVC",−0.07
same,"Fasting triglycerides, mean change from baseline","Week 4, All CVC",23 mg/dL
same,"HOMA-IR, mean change from baseline","Week 4, All CVC",0.30
same,"HbA1c, mean change from baseline","Week 4, All CVC",−0.01 % Hb
same,"Fasting HDL, mean change from baseline","Week 12, All CVC",9.45 mg/dL
same,"Fasting LDL, mean change from baseline","Week 12, All CVC",7.59 mg/dL
same,"Fasting total cholesterol, mean change from baseline","Week 12, All CVC",18 mg/dL
same,"Fasting total cholesterol/HDL ratio, mean change from baseline","Week 12, All CVC",−0.41
same,"Fasting triglycerides, mean change from baseline","Week 12, All CVC",3 mg/dL
same,"HOMA-IR, mean change from baseline","Week 12, All CVC",0.06
same,"HbA1c, mean change from baseline","Week 12, All CVC",−0.07 % Hb
same,"Fasting HDL, mean change from baseline","Week 24, All CVC",12.75 mg/dL
same,"Fasting LDL, mean change from baseline","Week 24, All CVC",13.40 mg/dL
same,"Fasting total cholesterol, mean change from baseline","Week 24, All CVC",24 mg/dL
same,"Fasting total cholesterol/HDL ratio, mean change from baseline","Week 24, All CVC",−0.47
same,"Fasting triglycerides, mean change from baseline","Week 24, All CVC",-10 mg/dL
same,"HOMA-IR, mean change from baseline","Week 24, All CVC",−1.27
same,"HbA1c, mean change from baseline","Week 24, All CVC",−0.01 % Hb
same,"Fasting HDL, mean change from baseline","Week 48, All CVC",11.94 mg/dL
same,"Fasting LDL, mean change from baseline","Week 48, All CVC",11.19 mg/dL
same,"Fasting total cholesterol, mean change from baseline","Week 48, All CVC",26 mg/dL
same,"Fasting total cholesterol/HDL ratio, mean change from baseline","Week 48, All CVC",−0.35
same,"Fasting triglycerides, mean change from baseline","Week 48, All CVC",14 mg/dL
same,"HOMA-IR, mean change from baseline","Week 48, All CVC",−0.12
same,"HbA1c, mean change from baseline","Week 48, All CVC",−0.08 % Hb
same,"Change in fasting cholesterol (total, LDL, HDL) during treatment",through Week 48,increases were observed
